Test results as given in patent US20230201267A1, “RETINAL PIGMENTED EPITHELIUM AND PHOTORECEPTOR DUAL CELL AGGREGATES AND METHODS OF USE THEREOF” (FUJIFILM Cellular Dynamics, Inc., priority 2020, published 2023).

Columns and labels:
[1] = tested on: RPE and PRP dual cell aggregates; assay: Dual cell aggregate formation in thaw medium with or without Y-27632 (phase contrast); type: cell-based, human; details: Y-27632 in thaw medium (RPE-MM), 1 RPE:8 PRP, compared with thaw without Y-27632
Description: (§1) To characterize a dual cell aggregate culture, RPE were thawed in RPE-MM and PRP were thawed in RMN. If PRP were thawed as aggregates, either all aggregates or a sample of aggregates were TrypLE dissociated. Both cell types were counted using a ViCELL XR. RPE and PRP were combined at a desired cell ratio and cell number in RPE-MM and placed in a ULA T-75 flask on a belly dancer at 16-18 RPM to permit aggregate formation. Alternately, aggregates could be formed in a PBS mini vessel. To test in vivo function, some aggregates were transplanted into the subretinal space of a rat retina two days after aggregate formation. Surgery was performed to analyze the retinas. Aggregates or rat retinas were cryosectioned and analyzed by immunocytochemistry.
Dual cell aggregate formation without Y-27632 in thaw medium: As a first attempt to co-culture RPE and PRP as aggregates, RPE and PRP were thawed as single cells at a ratio of 1 RPE:3 PRP. Phase contrast images were captured at various time points (FIG. 1). […] However, after 21 and 69 days, aggregates had formed and appeared to be fairly regular, though skewed to a high RPE ratio, relative to PRP. Based on this experiment, all future experiments used the ROCK inhibitor Y-27632 when thawing RPE and maintained a lower RPE:PRP ratio. […]

[2] = tested on: RPE and PRP dual cell aggregates; assay: Effect of PGE-2 on long-term dual cell aggregate culture (immunocytochemistry); type: cell-based, human; details: with vs without PGE2
Description: as §1
Effect of PGE-2 on long-term dual cell aggregate culture: During RPE culture, Prostaglandin E2 (PGE-2) is added to the culture medium from day 54 to day 68 of differentiation. PGE-2 is a hormone that stimulates RPE primary cilia formation and polarization, and its effect was tested on the dual cell aggregates (FIGS. 3-5). With this formulation of RPE and PRP, RPE generally appeared to form a majority of the aggregate, even after one month of culture. PRP did appear to mature after two months, indicated by the presence of PRPH2, an outer segment marker.

C[C@@H](N)[C@H]1CC[C@H](C(=O)Nc2ccncc2)CC1 [Condition Y-27632]
aggregate formation efficiency [1]: qualitatively more efficient

CCCCC[C@H](O)/C=C/[C@H]1[C@H](O)CC(=O)[C@@H]1C/C=C\CCCC(=O)O [PGE2, Prostaglandin E2]
PRP organization in dual cell aggregates ([2]; one month after aggregate formation, initial ratio 1 RPE:8 PRP): Differences in PRP organization were apparent | RPE organization or rod formation in dual cell aggregates ([2]; one month of culture): did not show striking differences
